Results on 28 compounds are retold here after patent publication US11332459B2 (TEIJIN PHARMA LIMITED, priority 2017, dated 2022).

The structures appear in SMILES notation. Structures can show the parent of a compound that is named as a salt.

For this assay, the target named is T1, human TRPC6 (Homo sapiens, UniProt Q9Y210).
T1 construct: expressed in transfected cells
T1 sequence (Q9Y210 1-931): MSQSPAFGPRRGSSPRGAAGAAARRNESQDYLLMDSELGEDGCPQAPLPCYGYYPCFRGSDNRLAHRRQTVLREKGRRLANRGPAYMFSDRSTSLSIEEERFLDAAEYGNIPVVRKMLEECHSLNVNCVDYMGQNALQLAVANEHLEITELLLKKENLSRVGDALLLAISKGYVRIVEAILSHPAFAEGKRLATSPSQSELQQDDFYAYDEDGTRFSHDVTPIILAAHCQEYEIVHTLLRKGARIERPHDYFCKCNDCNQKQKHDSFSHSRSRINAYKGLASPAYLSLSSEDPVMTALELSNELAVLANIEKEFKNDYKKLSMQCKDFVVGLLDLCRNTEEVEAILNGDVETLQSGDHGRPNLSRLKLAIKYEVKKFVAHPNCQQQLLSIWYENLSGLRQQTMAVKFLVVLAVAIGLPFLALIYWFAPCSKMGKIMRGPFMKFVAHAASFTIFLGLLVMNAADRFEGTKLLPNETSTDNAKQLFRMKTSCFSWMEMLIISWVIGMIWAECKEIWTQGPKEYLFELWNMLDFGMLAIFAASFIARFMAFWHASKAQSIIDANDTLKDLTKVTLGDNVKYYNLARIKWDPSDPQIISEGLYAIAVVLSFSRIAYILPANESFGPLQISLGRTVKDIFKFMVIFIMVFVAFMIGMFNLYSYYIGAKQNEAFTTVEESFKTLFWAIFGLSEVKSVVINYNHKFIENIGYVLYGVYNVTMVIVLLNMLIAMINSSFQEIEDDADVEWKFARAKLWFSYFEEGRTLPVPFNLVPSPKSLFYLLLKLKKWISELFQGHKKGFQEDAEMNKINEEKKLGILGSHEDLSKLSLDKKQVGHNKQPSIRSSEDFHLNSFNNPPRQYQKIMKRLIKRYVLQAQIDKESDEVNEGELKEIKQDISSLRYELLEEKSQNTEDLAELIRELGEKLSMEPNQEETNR
Kind of assay: TRPC6 calcium flux assay (FLIPR, OAG-stimulated calcium influx). The assay is classed as cell-based. To be noted: HEK293 cells stably transfected with human TRPC6, read-out: hTRPC6 Potency. Summed up:
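IC50 derived by plotting background-corrected peak fluorescence (180 s window, normalized to OAG-triggered signal vs buffer) against dose. Stable human TRPC6 HEK293 line was dye-loaded, exposed to compound 25 min, then challenged with 50 uM final OAG in 2 mM Ca2+ HEPES buffer pH 7.2, 0.5% DMSO.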
In general terms: Calcium assays in cells follow changes in intracellular calcium, usually with a dye or a luminescent sensor.
Turning to `N#Cc1ccc(Cn2c(N3C[C@@H]4CC[C@@H](N)[C@@H]4C3)nc3ccccc32)nc1` [Example 79, 6-((2-((3aS,4R,6aR)-4-aminohexahydrocyclopenta[c]pyrrol-2(1H)-yl)-1H-benzo[d]imidazol-1-yl)methyl)nicotinonitrile hydrochloride], the IC50 came to 5.09 nM.
The result for `N[C@@H]1CN(c2nc3ccc(F)cc3n2CC(=O)NCC(F)(F)F)CC[C@H]1F` [Example 661, 2-(2-((3R,4R)-3-amino-4-fluoropiperidin-1-yl)-6-fluoro-1H-benzo[d]imidazol-1-yl)-N-(2,2,2-trifluoroethyl)acetamide] reads 279 nM; that for `N#Cc1ccc2c(c1)nc(N1CC[C@@H](F)[C@H](N)C1)n2Cc1cnc(C#N)cn1` [Example 250, 2-((3R,4R)-3-amino-4-fluoro-1-piperidinyl)-1-((5-cyano-2-pyrazinyl)methyl)-1H-benzimidazole-5-carbonitrile], 78.5 nM; that for `N[C@@H]1CN(c2nc3cc(F)c(F)cc3n2CC(=O)N2CC3(CCOCC3)C2)CC[C@H]1F` [Example 431, 2-(2-((3R,4R)-3-amino-4-fluoropiperidin-1-yl)-5,6-difluoro-1H-benzo[d]imidazol-1-yl)-1-(7-oxa-2-azaspiro[3.5]nonan-2-yl)ethanone], above 3750 nM.
Take `COc1ccc2nc(N3CC[C@@H](F)[C@H](N)C3)n(Cc3ccc(C#N)cn3)c2c1` [Example 146, 6-((2-((3R,4R)-3-amino-4-fluoropiperidin-1-yl)-6-methoxy-1H-benzo[d]imidazol-1-yl)methyl)nicotinonitrile hydrochloride]: the IC50 is 0.631 nM.
Regarding `N[C@@H]1CCCN(c2nc3ccccc3n2Cc2ccc(F)c(F)c2)C1` [Example 390, (R)-1-(1-(3,4-difluorobenzyl)-1H-benzo[d]imidazol-2-yl)piperidin-3-amine], the IC50 was found to be 3570 nM.
The value for `COc1ccc2nc(N3CC[C@H](F)[C@H](N)C3)n(Cc3ccc(C#N)cn3)c2c1` [Example 147, 6-((2-((3R,4S)-3-amino-4-fluoropiperidin-1-yl)-6-methoxy-1H-benzo[d]imidazol-1-yl)methyl)nicotinonitrile hydrochloride] was 0.433 nM; that for `N#Cc1ccc2c(c1)CC[C@@H]2n1c(N2CCC[C@H](N)C2)nc2ccccc21` [Example 424, (S)-1-(2-((S)-3-aminopiperidin-1-yl)-1H-benzo[d]imidazol-1-yl)-2,3-dihydro-1H-indene-5-carbonitrile] was 0.707 nM.
Turning to `N[C@@H]1CCCN(c2nc3ccccc3n2Cc2ccc(Cl)cc2)C1` [Example 377, (R)-1-(1-(4-chlorobenzyl)-1H-benzo[d]imidazol-2-yl)piperidin-3-amine], the IC50 amounted to 1650 nM.
The value for `CCN(CC(C)C#N)C(=O)Cn1c(N2CC[C@@H](F)[C@H](N)C2)nc2cc(F)c(F)cc21` (mixture of isomers) [Example 237, 2-(2-((3R,4R)-3-amino-4-fluoropiperidin-1-yl)-5,6-difluoro-1H-benzo[d]imidazol-1-yl)-N-(2-cyanopropyl)-N-ethylacetamide] was 223 nM; that for `N#Cc1ccc(Cn2c(N3C[C@@H](N)CC(F)(F)C3)nc3ccccc32)nc1` [Example 17, (S)-6-((2-(5-amino-3,3-difluoropiperidin-1-yl)-1H-benzo[d]imidazol-1-yl)methyl)nicotinonitrile] was 118 nM.
Take `N#CC1CN(C(=O)Cn2c(N3CC[C@@H](F)[C@H](N)C3)nc3cc(F)c(F)cc32)C1` [Example 426, 1-(2-(2-((3R,4R)-3-amino-4-fluoropiperidin-1-yl)-5,6-difluoro-1H-benzo[d]imidazol-1-yl)acetyl)azetidine-3-carbonitrile]: the IC50 is 933 nM.
The result for `N#Cc1ccc(Cn2c(N3CC[C@@H](F)[C@H](N)C3)nc3ccc(OC(F)(F)F)cc32)nc1` [Example 19, 6-((2-((3R,4R)-3-amino-4-fluoropiperidin-1-yl)-6-(trifluoromethoxy)-1H-benzo[d]imidazol-1-yl)methyl)nicotinonitrile] reads 0.956 nM.
As to `N[C@@H]1CN(c2nc3ncc(F)cc3n2Cc2ncc(Cl)cn2)CC[C@H]1F` [Example 555, (3R,4R)-1-(1-((5-chloropyrimidin-2-yl)methyl)-6-fluoro-1H-imidazo[4,5-b]pyridin-2-yl)-4-fluoropiperidin-3-amine], the IC50 stood at 11.6 nM.
For `CN(C)C(=O)Cn1c(N2CC[C@@H](F)[C@H](N)C2)nc2c(F)cc(F)cc21` [Example 565, 2-(2-((3R,4R)-3-amino-4-fluoropiperidin-1-yl)-4,6-difluoro-1H-benzo[d]imidazol-1-yl)-N,N-dimethylacetamide], the IC50 was found to be 32.2 nM.
Take `C[C@H](c1cccc2cccnc12)n1c(N2CC[C@@H](F)[C@H](N)C2)nc2cc(F)c(F)cc21` [Example 261, (3R,4R)-1-(5,6-difluoro-1-((1R)-1-(8-quinolinyl)ethyl)-1H-benzimidazol-2-yl)-4-fluoro-3-piperidinamine]: the IC50 is above 3750 nM.
`N[C@@H]1CN(c2nc3ccc(F)cc3n2Cc2ncc(Cl)cn2)CC[C@H]1F` [Example 289, (3R,4R)-1-(1-((5-chloropyrimidin-2-yl)methyl)-6-fluoro-1H-benzo[d]imidazol-2-yl)-4-fluoropiperidin-3-amine]: the IC50 came to 73.5 nM.
The result for `N#Cc1ccc(Cn2c(N3CCC[C@@H](N)C3)nc3ccccc32)cn1` [Example 292, (R)-5-((2-(3-aminopiperidin-1-yl)-1H-benzo[d]imidazol-1-yl)methyl)picolinonitrile 2,2,2-trifluoroacetate] reads 62.5 nM; that for `CN[C@@H]1CN(c2nc3cc(F)cc(F)c3n2[C@@H](C)c2ccc(C#N)cn2)CC[C@H]1F` (single isomer, unassigned) [Example 441], 2.23 nM; that for `N[C@@H]1CN(c2nc3cc(F)c(F)cc3n2CC(=O)N2CCC(C(=O)N3CCCCC3)CC2)CC[C@H]1F` [Example 536, 2-(2-((3R,4R)-3-amino-4-fluoropiperidin-1-yl)-5,6-difluoro-1H-benzo[d]imidazol-1-yl)-1-(4-(piperidine-1-carbonyl)piperidin-1-yl)ethan-1-one], above 3750 nM.
On to `COc1ccc2nc(N3CCC[C@@H](N)C3)n(Cc3ccc(C#N)cc3)c2c1` [Example 185, (R)-4-((2-(3-aminopiperidin-1-yl)-6-methoxy-1H-benzo[d]imidazol-1-yl)methyl)benzonitrile], for which the IC50 stood at 3.58 nM.
For `CS(=O)(=O)c1ccc(Cn2c(N3CC[C@@H](F)[C@H](N)C3)nc3c(F)cc(F)cc32)nc1` [Example 556, (3R,4R)-1-(4,6-difluoro-1-((5-(methylsulfonyl)pyridin-2-yl)methyl)-1H-benzo[d]imidazol-2-yl)-4-fluoropiperidin-3-amine], the IC50 was 11.9 nM.
On to `Cc1cc2nc(N3CC[C@@H](F)[C@H](N)C3)n(Cc3ccc(C#N)cn3)c2cc1C` [Example 44], for which the IC50 amounted to 0.952 nM.
As to `CN(CCC(F)(F)F)C(=O)Cn1c(N2CC[C@@H](F)[C@H](N)C2)nc2cc(F)c(F)cc21` [Example 622, -(2-((3R,4R)-3-amino-4-fluoropiperidin-1-yl)-5,6-difluoro-1H-benzo[d]imidazol-1-yl)-N-methyl-N-(3,3,3-trifluoropropyl)acetamide], the IC50 was found to be 78.9 nM.
For the compound `N[C@@H]1CN(c2nc3cc(F)ccc3n2CC(=O)N2CCC2)CC[C@H]1F` [Example 514, 2-(2-((3R,4R)-3-amino-4-fluoropiperidin-1-yl)-5-fluoro-1H-benzo[d]imidazol-1-yl)-1-(azetidin-1-yl)ethan-1-one], the IC50 stood at 185 nM.
In the case of `N#Cc1ccc(Cn2c(N3CC[C@@H](O)[C@H](N)C3)nc3ccc(F)cc32)nc1` [Example 207, 6-((2-((3R,4R)-3-amino-4-hydroxypiperidin-1-yl)-6-fluoro-1H-benzo[d]imidazol-1-yl)methyl)nicotinonitrile], the IC50 is 49.6 nM.
The value for `N[C@@H]1CCCN(c2nc3ccccc3n2Cc2cccc(Cl)c2)C1` [Example 378, (R)-1-(1-(3-chlorobenzyl)-1H-benzo[d]imidazol-2-yl)piperidin-3-amine] was 3080 nM; that for `CCCN(C)C(=O)Cn1c(N2CC[C@@H](F)[C@H](N)C2)nc2cc(F)c(F)cc21` [Example 616, 2-(2-((3R,4R)-3-amino-4-fluoropiperidin-1-yl)-5,6-difluoro-1H-benzo[d]imidazol-1-yl)-N-methyl-N-propylacetamide] was 32.3 nM.
